Legend:
Type in all cases: in vivo
[1] = tested on: upland rice (Oryza sp., var. Tebonnet, RICE); assay: Post-emerge test, crop safety; details: phytotoxicity rating 0-100 (0 no damage, 100 complete death), 14 days after application
Method in brief: (§1)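 Compounds in acetone were track-sprayed at 187 l/ha, 15–1000 g ai/ha, onto sandy loam pots. Pre-emerge seeds were sown one day before spraying, with surface watering afterwards. Post-emerge plants were at the 2–3 leaf stage and sprayed with 0.25% v/v non-ionic surfactant. Injury was rated 0–100 at 14 days.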

[2] = tested on: field corn (Zea mays L., var. Dekalb 535, CORN); assay: Post-emerge test, crop safety; details: phytotoxicity rating 0-100 (0 no damage, 100 complete death), 14 days after application
Method in brief: as §1

[3] = tested on: redroot pigweed (Amaranthus retroflexus, AMARE); assay: Pre-emerge test, greenhouse herbicide activity screening; details: pre-emerge, rated 14 days after application, 0 = no damage, 100 = complete death
Method in brief: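 Sandy loam pots; pre-emerge: sown 1 d pre-spray, surface-watered after, then bottom-watered. Post-emerge: sown 8–21 d before, 2–3 leaf stage, + 0.25% v/v NIS, bottom-watered. Acetone, 187 l/ha track spray, 15–1000 g ai/ha. 0–100 injury score, day 14.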

[4] = tested on: upland rice (Oryza sp., var. Tebonnet, RICE); assay: Pre-emerge test, crop safety; details: pre-emerge, rated 14 days after application, 0 = no damage, 100 = complete death
Method in brief: (§2)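 Plants grown in 10 cm pots of sandy loam mix received acetone-dissolved compounds through a moving flat-fan nozzle. Doses ranged from 15 to 1000 g ai/ha. Pre-emerge pots were seeded one day earlier, post-emerge pots 8–21 days earlier. Fourteen days on, each pot was graded 0–100 for damage.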

[5] = tested on: field corn (Zea mays L., var. Dekalb 535, CORN); assay: Pre-emerge test, crop safety; details: pre-emerge, rated 14 days after application, 0 = no damage, 100 = complete death
Method in brief: as §2

[6] = tested on: sicklepod (Cassia obtusifolia, CASOB); assay: Pre-emerge test, greenhouse herbicide activity screening; details: pre-emerge, rated 14 days after application, 0 = no damage, 100 = complete death
Method in brief: as §1

[7] = tested on: barnyardgrass (Echinochloa crus-galli, ECHCG); assay: as above; details: pre-emerge, rated 14 days after application, 0 = no damage, 100 = complete death
Method in brief: as §1

[8] = tested on: ivyleaf morningglory (Ipomoea hederacea, IPOHE); assay: as above; details: pre-emerge, rated 14 days after application, 0 = no damage, 100 = complete death
Method in brief: as §1

[9] = tested on: johnsongrass (Sorghum halepense, SORHA); assay: as above; details: pre-emerge, rated 14 days after application, 0 = no damage, 100 = complete death
Method in brief: as §1

[10] = tested on: lambsquarters (Chenopodium album, CHEAL); assay: as above; details: pre-emerge, rated 14 days after application, 0 = no damage, 100 = complete death
Method in brief: as §1

[11] = tested on: green foxtail (Setaria viridis, SETVI); assay: as above; details: pre-emerge, rated 14 days after application, 0 = no damage, 100 = complete death
Method in brief: as §1

[12] = tested on: velvetleaf (Abutilon theophrasti, ABUTH); assay: as above; details: pre-emerge, rated 14 days after application, 0 = no damage, 100 = complete death
Method in brief: as §1

[13] = tested on: large crabgrass (Digitaria sanguinalis, DIGSA); assay: as above; details: pre-emerge, rated 14 days after application, 0 = no damage, 100 = complete death
Method in brief: as §1

[14] = tested on: sicklepod (Cassia obtusifolia, CASOB); assay: Post-emerge test, greenhouse herbicide activity screening; details: phytotoxicity rating 0-100 (0 no damage, 100 complete death), 14 days after application
Method in brief: (§3)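 Compounds in acetone were track-sprayed at 15–1000 g ai/ha: pre-emergence onto soil sown the previous day, then top-watered to incorporate and later bottom-watered; post-emergence onto 2–3 leaf plants with 0.25% v/v surfactant, bottom-watered only. Ratings on a 0–100 phytotoxicity scale were taken at day 14.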

[15] = tested on: barnyardgrass (Echinochloa crus-galli, ECHCG); assay: as above; details: phytotoxicity rating 0-100 (0 no damage, 100 complete death), 14 days after application
Method in brief: as §3

[16] = tested on: ivyleaf morningglory (Ipomoea hederacea, IPOHE); assay: as above; details: phytotoxicity rating 0-100 (0 no damage, 100 complete death), 14 days after application
Method in brief: as §3

[17] = tested on: johnsongrass (Sorghum halepense, SORHA); assay: as above; details: phytotoxicity rating 0-100 (0 no damage, 100 complete death), 14 days after application
Method in brief: as §3

[18] = tested on: lambsquarters (Chenopodium album, CHEAL); assay: as above; details: phytotoxicity rating 0-100 (0 no damage, 100 complete death), 14 days after application
Method in brief: as §3

[19] = tested on: redroot pigweed (Amaranthus retroflexus, AMARE); assay: as above; details: phytotoxicity rating 0-100 (0 no damage, 100 complete death), 14 days after application
Method in brief: as §3

[20] = tested on: green foxtail (Setaria viridis, SETVI); assay: as above; details: phytotoxicity rating 0-100 (0 no damage, 100 complete death), 14 days after application
Method in brief: as §3

[21] = tested on: velvetleaf (Abutilon theophrasti, ABUTH); assay: as above; details: phytotoxicity rating 0-100 (0 no damage, 100 complete death), 14 days after application
Method in brief: as §3

[22] = tested on: large crabgrass (Digitaria sanguinalis, DIGSA); assay: as above; details: phytotoxicity rating 0-100 (0 no damage, 100 complete death), 14 days after application
Method in brief: as §3

COC(=O)C=CCOc1c(Cl)cc(F)c(-n2c(=O)cc(C(F)(F)F)n(C)c2=O)c1N [Compound 1-20]
Post-emerge Herbicidal Activity RICE (crop damage) ([1]; 63 g ai/ha): 20
Post-emerge Herbicidal Activity RICE (crop damage) ([1]; 250 g ai/ha): 50
Post-emerge Herbicidal Activity CORN (crop damage) ([2]; 63 g ai/ha): 10
Post-emerge Herbicidal Activity CORN (crop damage) ([2]; 250 g ai/ha): 40
Pre-emerge Herbicidal Activity AMARE (phytotoxicity rating, scale 0-100) ([3]; 63 g ai/ha): 100
Pre-emerge Herbicidal Activity AMARE (phytotoxicity rating, scale 0-100) ([3]; 250 g ai/ha): 100
Pre-emerge crop damage RICE (phytotoxicity rating, scale 0-100) ([4]; 63 g ai/ha): 60
Pre-emerge crop damage RICE (phytotoxicity rating, scale 0-100) ([4]; 250 g ai/ha): 70
Pre-emerge crop damage CORN (phytotoxicity rating, scale 0-100) ([5]; 63 g ai/ha): 15
Pre-emerge crop damage CORN (phytotoxicity rating, scale 0-100) ([5]; 250 g ai/ha): 65
Pre-emerge Herbicidal Activity CASOB (phytotoxicity rating, scale 0-100) ([6]; 63 g ai/ha): 100
Pre-emerge Herbicidal Activity CASOB (phytotoxicity rating, scale 0-100) ([6]; 250 g ai/ha): 100
Pre-emerge Herbicidal Activity ECHCG (phytotoxicity rating, scale 0-100) ([7]; 63 g ai/ha): 50
Pre-emerge Herbicidal Activity ECHCG (phytotoxicity rating, scale 0-100) ([7]; 250 g ai/ha): 100
Pre-emerge Herbicidal Activity IPOHE (phytotoxicity rating, scale 0-100) ([8]; 63 g ai/ha): 40
Pre-emerge Herbicidal Activity IPOHE (phytotoxicity rating, scale 0-100) ([8]; 250 g ai/ha): 100
Pre-emerge Herbicidal Activity SORHA (phytotoxicity rating, scale 0-100) ([9]; 63 g ai/ha): 30
Pre-emerge Herbicidal Activity SORHA (phytotoxicity rating, scale 0-100) ([9]; 250 g ai/ha): 70
Pre-emerge Herbicidal Activity CHEAL (phytotoxicity rating, scale 0-100) ([10]; 63 g ai/ha): 100
Pre-emerge Herbicidal Activity CHEAL (phytotoxicity rating, scale 0-100) ([10]; 250 g ai/ha): 100
Pre-emerge Herbicidal Activity SETVI (phytotoxicity rating, scale 0-100) ([11]; 63 g ai/ha): 80
Pre-emerge Herbicidal Activity SETVI (phytotoxicity rating, scale 0-100) ([11]; 250 g ai/ha): 100
Pre-emerge Herbicidal Activity ABUTH (phytotoxicity rating, scale 0-100) ([12]; 63 g ai/ha): 100
Pre-emerge Herbicidal Activity ABUTH (phytotoxicity rating, scale 0-100) ([12]; 250 g ai/ha): 100
Pre-emerge Herbicidal Activity DIGSA (phytotoxicity rating, scale 0-100) ([13]; 63 g ai/ha): 50
Pre-emerge Herbicidal Activity DIGSA (phytotoxicity rating, scale 0-100) ([13]; 250 g ai/ha): 90
Post-emerge Herbicidal Activity CASOB ([14]; 63 g ai/ha): 0
Post-emerge Herbicidal Activity CASOB ([14]; 250 g ai/ha): 50
Post-emerge Herbicidal Activity ECHCG ([15]; 63 g ai/ha): 30
Post-emerge Herbicidal Activity ECHCG ([15]; 250 g ai/ha): 80
Post-emerge Herbicidal Activity IPOHE ([16]; 63 g ai/ha): 100
Post-emerge Herbicidal Activity IPOHE ([16]; 250 g ai/ha): 100
Post-emerge Herbicidal Activity SORHA ([17]; 63 g ai/ha): 10
Post-emerge Herbicidal Activity SORHA ([17]; 250 g ai/ha): 70
Post-emerge Herbicidal Activity CHEAL ([18]; 63 g ai/ha): 90
Post-emerge Herbicidal Activity CHEAL ([18]; 250 g ai/ha): 100
Post-emerge Herbicidal Activity AMARE ([19]; 63 g ai/ha): 90
Post-emerge Herbicidal Activity AMARE ([19]; 250 g ai/ha): 100
Post-emerge Herbicidal Activity SETVI ([20]; 63 g ai/ha): 0
Post-emerge Herbicidal Activity SETVI ([20]; 250 g ai/ha): 60
Post-emerge Herbicidal Activity ABUTH ([21]; 63 g ai/ha): 100
Post-emerge Herbicidal Activity ABUTH ([21]; 250 g ai/ha): 100
Post-emerge Herbicidal Activity DIGSA ([22]; 63 g ai/ha): 10
Post-emerge Herbicidal Activity DIGSA ([22]; 250 g ai/ha): 20
